Consider one compound from patent publication US20150038513A1, “ASSOCIATION BETWEEN N-HYDROXY-4-BENZAMIDE AND FOLFOX” (LES LABORATOIRES SERVIER, priority 2011, published 2015).

SMILES strings stand for the structures.

The test system of assay [1] is histone deacetylase (HDAC). The following applies: described in WO2004/092115; cited from earlier work.
The next assay concerns cultured tumour cells. The following applies: cultured tumour cells in vitro; Buggy et al. 2006; cited from earlier work.
The test system of the next assay is xenograft models. The settings on record: in vivo, Buggy et al. 2006; cited from earlier work.
The subject of assay [2] is colorectal cancer, a pancreatic cancer or a gastric cancer. Put plainly: Clinical study of the association with FOLFOX. The assay is classed as in vivo. The following applies: patients previously treated by FOLFOX. The method, then:
A clinical study for testing the association of N-hydroxy-4-{2-[3-(N,N-dimethylamino-methyl)benzofuran-2-ylcarbonylamino]ethoxy}benzamide with FOLFOX is carried out on a maximum of 60 patients. Patients included in the study suffer from a colorectal cancer, a pancreatic cancer or a gastric cancer, and they have been treated by a treatment based on FOLFOX (i.e., alone or in association with other treatments) prior to their inclusion. More precisely, the study consists of 14-day cycles, each of the cycles being performed as follows: N-hydroxy-4-{2-[3-(N,N-dimethylaminomethyl)benzofuran-2-ylcarbonylamino]ethoxy}benzamide (in the form of a hydrochloride salt) is administered for 4 consecutive days whilst oxaliplatin and folinic acid are administered simultaneously on the third day, at the end of infusion of which 5-fluorouracil is administered continuously until the fifth day. […] At the end of a treatment cycle, the toxicity of the regimen associating N-hydroxy-4-{2-[3-(N,N-dimethylaminomethyl)benzofuran-2-ylcarbonylamino]ethoxy}benzamide and FOLFOX is assessed. […] Every four cycles, the efficacy of the treatment is assessed by evaluating the tumour response (CT scan, MRI, etc.). The acceptability profile is also evaluated (especially haematologic and cardiac toxicity).

As to `CN(C)Cc1c(C(=O)NCCOc2ccc(C(=O)NO)cc2)oc2ccccc12` [N-hydroxy-4-{2-[3-(N,N-dimethylaminomethyl)benzofuran-2-ylcarbonylamino]ethoxy}benzamide], the HDAC inhibition entry in assay [1] is listed as “powerful histone deacetylase (HDAC) inhibitor”. Further, in the assay on cultured tumour cells, the apoptosis entry was “induces apoptosis” and the cell growth result is reported as “inhibition of cell growth”. For the same compound, the tumour growth entry in the assay with xenograft models is given as “inhibits tumour growth”. Besides, in assay [2] (hydrochloride salt p.o., 160-360 mg daily, 4 consecutive days, in association with FOLFOX, 14-day cycles), the “efficacy of the treatment (tumour response) of the association with FOLFOX” value is given as “promising”. In assay [2], the “reversal of resistance to FOLFOX” value is on record as “reverse the resistance to FOLFOX”.
